Patent US7608619B2, “Substituted oxazole compounds with analgesic activity” (Gruenenthal GmbH, priority 2005, dated 2009)

These molecules were tested against T1, human μ-opiate receptor (Homo sapiens, UniProt P35372) (assay: Affinity for the human μ-opiate receptor ([3H]-naloxone displacement, SPA, CHO-K1 membrane preparation)). Details: test substance 1 μmole/l; displacement of 1 nmole/l [3H]-naloxone; percentage inhibition of the specific binding.
T1 construct: purchased Nen company, Zaventem, Belgium RB-HOM; host or cells: CHO-K1 cells (membrane preparation)
T1 sequence (P35372 whole entry): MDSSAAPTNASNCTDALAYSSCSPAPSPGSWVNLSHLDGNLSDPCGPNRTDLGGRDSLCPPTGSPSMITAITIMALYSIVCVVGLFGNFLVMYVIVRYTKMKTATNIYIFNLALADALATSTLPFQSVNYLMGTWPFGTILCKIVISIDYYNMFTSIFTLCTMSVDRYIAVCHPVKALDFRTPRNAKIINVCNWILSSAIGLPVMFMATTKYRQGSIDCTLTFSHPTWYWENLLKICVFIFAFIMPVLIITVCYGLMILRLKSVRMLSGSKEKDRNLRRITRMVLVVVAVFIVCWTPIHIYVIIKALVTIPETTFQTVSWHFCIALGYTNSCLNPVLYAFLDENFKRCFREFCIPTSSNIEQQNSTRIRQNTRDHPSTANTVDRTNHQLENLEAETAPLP
How it was run: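 [3H]-naloxone (1 nmol/l) displacement by SPA with WGA beads, using membranes of CHO-K1 cells expressing the receptor, in 50 mmol/l Tris-HCl with 0.05% azide and 0.06% BSA; 90 min at room temperature. Non-specific binding defined with 25 μmol/l naloxone. Value is % inhibition of specific binding at 1 μmol/l test compound.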

SMILES | μ-opioid receptor, % inhibition [1 μM]
CN(CCc1ccccc1)c1oc(C(CC2CCC(C(c3ccc(F)cc3)N(C)C)CC2)N(C)c2ccccc2)nc1Cc1ccccc1 (stereo not drawn) [compound 102, {4-benzyl-2-[2-{4-[dimethylamino-(4-fluorophenyl)-methyl]-cyclohexyl}-1-(methylphenylamine)-ethyl]-oxazol-5-yl}-methylphenethylamine] | 77%
CCN(CC)c1oc(C(CC2CCC(C(c3ccc(F)cc3)N(C)C)CC2)N(C)c2ccccc2)nc1Cc1ccccc1 (stereo not drawn) [compound 103, {4-benzyl-2-[2-{4-[dimethylamino-(4-fluorophenyl)-methyl]-cyclohexyl}-1-(methylphenylamine)-ethyl]-oxazol-5-yl}-diethylamine] | 79%

Same assay, conditions: test substance 1 μmole/l; displacement of 1 nmole/l [3H]-naloxone; percentage inhibition of the specific binding; read-out: μ-opioid receptor, % inhibition [1 μM]

SMILES | inhibition at 1 µM
CN(CCc1ccccc1)c1oc(C(CC2CCC(C(c3ccc(Cl)cc3)N(C)C)CC2)N2CCN(Cc3ccccc3)CC2)nc1Cc1ccccc1 (stereo not drawn) [compound 93, [4-Benzyl-2-(1-(4-benzylpiperazin-1-yl)-2-{4-[(4-chlorophenyl)-dimethylaminomethyl]-cyclohexyl}-ethyl)-oxazol-5-yl]-methylphenethyl-amine] | 66%
CCN(CC)c1oc(C(CC2CCC(C(c3ccc(Cl)cc3)N(C)C)CC2)N2CCN(Cc3ccccc3)CC2)nc1Cc1ccccc1 (stereo not drawn) [compound 94, [4-benzyl-2-(1-(4-benzylpiperazin-1-yl)-2-{4-[(4-chlorophenyl)-dimethylaminomethyl]-cyclohexyl}-ethyl)-oxazol-5-yl]-diethylamine] | 74%
CN(CCc1ccccc1)c1oc(C(CC2CCC(C(c3ccc(F)cc3)N(C)C)CC2)N2CCCCC2)nc1Cc1ccccc1 (stereo not drawn) [compound 95, [4-benzyl-2-(2-{4-[dimethylamino-(4-fluorophenyl)-methyl]-cyclohexyl}-1-piperidin-1-yl-ethyl)-oxazol-5-yl]-methylphenethylamine] | 65%
CCN(CC)C(CC1CCC(C(c2ccc(F)cc2)N(C)C)CC1)c1nc(Cc2ccccc2)c(N2CC(C)CC(C)C2)o1 (stereo not drawn) [compound 96, (1-[4-benzyl-5-(3,5-dimethylpiperidin-1-yl)-oxazol-2-yl]-2-{4-[dimethylamino-(4-fluorophenyl)-methyl]-cyclohexyl}-ethyl)-diethylamine] | 80%
CCN(CC)C(CC1CCC(C(c2ccc(F)cc2)N(C)C)CC1)c1nc(Cc2ccccc2)c(N(C)CCc2ccccc2)o1 (stereo not drawn) [compound 97, [4-benzyl-2-(1-diethylamino-2-{4-[dimethylamino-(4-fluorophenyl)-methyl]-cyclohexyl}-ethyl)-oxazol-5-yl]-methylphenethylamine] | 85%
CCN(CC)c1oc(C(CC2CCC(C(c3ccc(F)cc3)N(C)C)CC2)N(CC)CC)nc1Cc1ccccc1 (stereo not drawn) [compound 98, [4-benzyl-2-(1-diethylamino-2-{4-[dimethylamino-(4-fluorophenyl)-methyl]-cyclohexyl}-ethyl)-oxazol-5-yl]-diethylamine] | 77%
CCN(CC)C(CC1CCC(C(c2ccc(F)cc2)N(C)C)CC1)c1nc(Cc2ccccc2)c(N2CCSCC2)o1 (stereo not drawn) [compound 99, (1-(4-benzyl-5-thiomorpholin-4-yl-oxazol-2-yl)-2-{4-[dimethylamino-(4-fluorophenyl)-methyl]-cyclohexyl}-ethyl)-diethylamine] | 62%
CCN(CC)C(CC1CCC(C(c2ccc(F)cc2)N(C)C)CC1)c1nc(Cc2ccccc2)c(N2CCCC(C)C2)o1 (stereo not drawn) [compound 100, (1-[4-benzyl-5-(3-methylpiperidin-1-yl)-oxazol-2-yl]-2-{4-[dimethylamino-(4-fluorophenyl)-methyl]-cyclohexyl}-ethyl)-diethylamine] | 86%
CC1CC(C)CN(c2oc(C(CC3CCC(C(c4ccc(F)cc4)N(C)C)CC3)N(C)c3ccccc3)nc2Cc2ccccc2)C1 (stereo not drawn) [compound 101, (1-[4-benzyl-5-(3,5-dimethylpiperidin-1-yl)-oxazol-2-yl]-2-{4-[dimethylamino-(4-fluorophenyl)-methyl]-cyclohexyl}-ethyl)-methylphenylamine] | 68%
CN(C)C(c1ccc(F)cc1)C1CCC(CC(c2nc(Cc3ccccc3)c(N3CCSCC3)o2)N(C)c2ccccc2)CC1 (stereo not drawn) [compound 104, (1-(4-benzyl-5-thiomorpholin-4-yl-oxazol-2-yl)-2-{4-[dimethylamino-(4-fluorophenyl)-methyl]-cyclohexyl}-ethyl)-methylphenylamine] | 89%
CC1CCCN(c2oc(C(CC3CCC(C(c4ccc(F)cc4)N(C)C)CC3)N(C)c3ccccc3)nc2Cc2ccccc2)C1 (stereo not drawn) [compound 105, (1-[4-benzyl-5-(3-methylpiperidin-1-yl)-oxazol-2-yl]-2-{4-[dimethylamino-(4-fluorophenyl)-methyl]-cyclohexyl}-ethyl)-methylphenylamine] | 71%
CC1CCCN(c2oc(C(CC3CCC(C(c4ccc(F)cc4)N(C)C)CC3)N3CCN(Cc4ccccc4)CC3)nc2Cc2ccccc2)C1 (stereo not drawn) [compound 106, [{4-[2-[4-benzyl-5-(3-methylpiperidin-1-yl)-oxazol-2-yl]-2-(4-benzyl-piperazin-1-yl)-ethyl]-cyclohexyl}-(4-fluorophenyl)-methyl]-dimethylamine] | 61%
CC1CC(C)CN(c2oc(C(CC3CCC(C(c4cccs4)N(C)C)CC3)N3CCCCC3)nc2Cc2ccccc2)C1 (stereo not drawn) [compound 107, [(4-{2-[4-benzyl-5-(3,5-dimethylpiperidin-1-yl)-oxazol-2-yl]-2-piperidin-1-yl-ethyl}-cyclohexyl)-thiophen-2-yl-methyl]-dimethylamine] | 84%
CN(CCc1ccccc1)c1oc(C(CC2CCC(C(c3cccs3)N(C)C)CC2)N2CCCCC2)nc1Cc1ccccc1 (stereo not drawn) [compound 108, (4-benzyl-2-{2-[4-(dimethylaminothiophen-2-yl-methyl)-cyclohexyl]-1-piperidin-1-yl-ethyl}-oxazol-5-yl)-methylphenethylamine] | 88%
CCN(CC)c1oc(C(CC2CCC(C(c3cccs3)N(C)C)CC2)N2CCCCC2)nc1Cc1ccccc1 (stereo not drawn) [compound 109, (4-benzyl-2-{2-[4-(dimethylaminothiophen-2-yl-methyl)-cyclohexyl]-1-piperidin-1-yl-ethyl}-oxazol-5-yl)-diethylamine] | 98%
CN(C)C(c1cccs1)C1CCC(CC(c2nc(Cc3ccccc3)c(N3CCSCC3)o2)N2CCCCC2)CC1 (stereo not drawn) [compound 110, ({4-[2-(4-benzyl-5-thiomorpholin-4-yl-oxazol-2-yl)-2-piperidin-1-yl-ethyl]-cyclohexyl}-thiophen-2-yl-methyl)-dimethylamine] | 97%
CC1CCCN(c2oc(C(CC3CCC(C(c4cccs4)N(C)C)CC3)N3CCCCC3)nc2Cc2ccccc2)C1 (stereo not drawn) [compound 111, [(4-{2-[4-benzyl-5-(3-methylpiperidin-1-yl)-oxazol-2-yl]-2-piperidin-1-yl-ethyl}-cyclohexyl)-thiophen-2-yl-methyl]-dimethylamine] | 92%
CCN(CC)C(CC1CCC(C(c2cccs2)N(C)C)CC1)c1nc(Cc2ccccc2)c(N2CC(C)CC(C)C2)o1 (stereo not drawn) [compound 112, {1-[4-benzyl-5-(3,5-dimethylpiperidin-1-yl)-oxazol-2-yl]-2-[4-(dimethylamino-thiophen-2-yl-methyl)-cyclohexyl]-ethyl}-diethylamine] | 89%
CCN(CC)C(CC1CCC(C(c2cccs2)N(C)C)CC1)c1nc(Cc2ccccc2)c(N(C)CCc2ccccc2)o1 (stereo not drawn) [compound 113, (4-benzyl-2-{1-diethylamino-2-[4-(dimethylaminothiophen-2-yl-methyl)-cyclohexyl]-ethyl}-oxazol-5-yl)-methylphenethylamine] | 97%
CCN(CC)c1oc(C(CC2CCC(C(c3cccs3)N(C)C)CC2)N(CC)CC)nc1Cc1ccccc1 (stereo not drawn) [compound 114, (4-benzyl-2-{1-diethylamino-2-[4-(dimethylaminothiophen-2-yl-methyl)-cyclohexyl]-ethyl}-oxazol-5-yl)-diethylamine] | 94%
CCN(CC)C(CC1CCC(C(c2cccs2)N(C)C)CC1)c1nc(Cc2ccccc2)c(N2CCSCC2)o1 (stereo not drawn) [compound 115, {1-(4-benzyl-5-thiomorpholin-4-yl-oxazol-2-yl)-2-[4-(dimethylamino-thiophen-2-yl-methyl)-cyclohexyl]-ethyl}-diethylamine] | 93%
CCN(CC)C(CC1CCC(C(c2cccs2)N(C)C)CC1)c1nc(Cc2ccccc2)c(N2CCCC(C)C2)o1 (stereo not drawn) [compound 116, {1-[4-benzyl-5-(3-methylpiperidin-1-yl)-oxazol-2-yl]-2-[4-(dimethylamino-thiophen-2-yl-methyl)-cyclohexyl]-ethyl}-diethylamine] | 94%
CC1CCCN(c2oc(C(CC3CCC(C(c4cccs4)N(C)C)CC3)N(C)c3ccccc3)nc2Cc2ccccc2)C1 (stereo not drawn) [compound 117, {1-[4-benzyl-5-(3-methylpiperidin-1-yl)-oxazol-2-yl]-2-[4-(dimethylamino-thiophen-2-yl-methyl)-cyclohexyl]-ethyl}-methylphenylamine] | 99%
CN(C)C(c1cccs1)C1CCC(CC(c2nc(Cc3ccccc3)c(N3CCSCC3)o2)N2CCN(Cc3ccccc3)CC2)CC1 (stereo not drawn) [compound 118, ({4-[2-(4-benzylpiperazin-1-yl)-2-(4-benzyl-5-thiomorpholin-4-yl-oxazol-2-yl)-ethyl]-cyclohexyl}-thiophen-2-yl-methyl)-dimethylamine] | 84%
CC1CCCN(c2oc(C(CC3CCC(C(c4cccs4)N(C)C)CC3)N3CCN(Cc4ccccc4)CC3)nc2Cc2ccccc2)C1 (stereo not drawn) [compound 119, ({4-[2-[4-benzyl-5-(3-methylpiperidin-1-yl)-oxazol-2-yl]-2-(4-benzyl-piperazin-1-yl)-ethyl]-cyclohexyl}-thiophen-2-yl-methyl)-dimethylamine] | 99%
